# From patent US20050186172A1, “Cosmetic composition capable of fighting against skin aging” (Laboratoires Clarins, a corporation of France, priority 2002, published 2005)
# Tested on: glycation cross-linking between bovine albumin and glucose
# Assay: Anti-glycation activity: fluorescence of bovine albumin-glucose adduct (AGE) after incubation
# Format: biochemical
# Details: 10 mM, 8 days 37° C.
# Protocol: The effect of the extract of Diospyros kaki was studied in vitro on a model based on the measurement of the formation of the derivatives of the glycation reaction between lysine and glucose 6-phosphate. Certain of these derivatives (AGE) are fluorescent. The reaction was measured after […] of incubation.
# A reference molecule was tested in parallel: aminoguanidine.
# The test system is the reaction mixture containing bovine albumin ([…]) and glucose (500 mM) in a phosphate buffer (0.2 M, pH=7.4.).
# The products were mixed with the test system in sterile tubes; the tubes were covered with aluminum foil (the reaction must take place shielded from light).
# For the experimental conditions in which certain reagents or products are not present, the volume of the QSP tube should be completed with MilliQ water.
# After having sealed the openings of the tubes with parafilm (the reaction must take place without oxygen), the different reaction media were placed in a dry oven at 37° C. for 8 days.
# After 8 days of incubation, 100 μl was collected from each tube and transferred to a 96-well black plate.
# The fluorescence was then read using FLUOstar (BMG) (excitation at 355 nm, emission at 460 nm). The results are expressed in arbitrary fluorescence units.
# The relative fluorescence for the “product+bovine albumin” (=interference) is to be subtracted from the “product+bovine albumin+glucose” data.
# After 8 days of incubation of bovine albumin with an overcharge of glucose, the formation of glycation cross-linking was seen. It was evaluated by taking advantage of the fluorescence properties of the bovine albumin-glucose adduct.
compound,measurement,setting,value
"N=C(N)NN [Aminoguanidine, aminoguanidine]",% inhibition of the glycation,BSA + glucose,100%
same,Intensity of fluorescence,"BSA + glucose, ex 355 nm / em 460 nm","13,011.5 arbitrary units"
same,Intensity of real fluorescence,interference subtracted,0 arbitrary units
